Measured values taken from patent US20260176300A1, “N-ARYLPYRAZOLE NOD2 AGONISTS AS PROMOTERS OF IMMUNE CHECKPOINT INHIBITOR THERAPY” (THE SCRIPPS RESEARCH INSTITUTE, priority 2022, published 2026).
Entries after “also recorded” stand apart in the source; their conditions may differ.

How the values were obtained:
[1] = tested on: B16-F10 subcutaneous tumors; assay: B16-F10 tumor growth assay with anti-PD-L1 co-treatment; format: in vivo, mice; details: for B16 tumor growth over time: wild-type C57BL/6 mice, 100 μg α-PD-L1 and 100 μg compound i.p. every other day
Method: (§1) FIG. 3(A-H). NOD2 agonist TT030 activates cytokine production in vitro and improves immune checkpoint inhibitor treatment of tumor growth in vivo. A-D, Measurements of secreted cytokine levels from human peripheral mononuclear blood cells (PMBCs) treated with the indicated compounds for 24 h without or with lipopolysaccharide (LPS). E, Structures of TT030 and its enantiomer (TT030-ent). F, Activation of NOD1- and NOD2-expressing HEK-293T cells with the indicated compounds. C12-iE-DAP is a lipophilic version of the NOD1 agonist, iE-DAP. G, Growth profiles of B16-F10 subcutaneous tumors in wild-type C57BL/6 mice treated with 100 μg α-PD-L1 and 100 μg of the indicated compounds every other day starting at Day 7. H, Growth profiles of B16-F10 subcutaneous tumors in wild-type or Nod2^−/− C57BL/6 mice treated with 100 μg α-PD-L1 and 100 μg TT030 every other day starting at Day 7. Cytokine secretion assays and NOD activation assays were analyzed using a one-way ANOVA with Dunnett's multiple comparisons test compared to the DMSO control. Longitudinal tumor growth assays were analyzed using linear mixed-effects model analysis on the log transformed data. ns=not significant, *P<0.05, **P<0.01, ***P<0.001, ****P<0.0001.
Animals. Specific pathogen-free, eight-week old male C57BL/6J (B6, 000664) and B6.129S1—Nod2^tm1Flv/J (Nod2^−/−, 005763 from Flavell Lab, Yale School of Medicine) were obtained from The Jackson Laboratory. Animals were housed in autoclaved caging with SaniChip bedding and enrichment for nest building on a 12-hour light/dark cycle. Animals were provided gamma-irradiated chow (LabDiet, 5053) and sterile drinking water ad libitum. Animal care and experiments were conducted in accordance with NIH guidelines and approved by the Institutional Animal Care and Use Committee at Scripps Research (Protocol AUP-21-095).
Tumor growth assay. B16-F10 cells were subcultured on the day prior to harvesting for tumor inoculation. On the day of injection, cells were harvested using TrypLE Express, washed and resuspended in cold PBS, and counted with a hemocytometer. Cells were then resuspended at 2×10^6 cells mL^−1 in PBS and mixed 1:1 with Matrigel matrix (Corning; growth factor reduced, 356231). Cell suspensions were kept on ice prior to injection. Animals were anesthetized using 3% isoflurane, and their right flank was shaved with hair clippers. Animals were then subcutaneously injected with 100 μL of the cell suspension on their mid-right flank (1×10^5 cells per injection). Once tumors were established at roughly 25-100 mm^3, tumor volume was measured every other day. Digital calipers were used to measure the length and width of each tumor, and tumor volume was calculated as length×[…], where width was the smaller of the two measurements. […]

[2] = tested on: human peripheral mononuclear blood cells (PBMCs); assay: Cytokine release assay in primary human PBMCs; format: cell-based; details: 10 μM, 24 h
Method: as §1
FIG. 7(A-B). NOD2 agonist TT030 activates cytokine production in vitro. A-B, Measurements of secreted cytokine levels from human peripheral mononuclear blood cells (PMBCs) treated with the indicated compounds for 24 h without or with lipopolysaccharide (LPS). Cytokine secretion assays and NOD activation assays were analyzed using a one-way ANOVA with Dunnett's multiple comparisons test compared to the DMSO control. *P<0.05, **P<0.01.
Cytokine release assay. Human PMBCs were obtained from whole blood donated by healthy individuals via the Scripps Normal Blood Donor Service. Whole blood was diluted 1:1 with phosphate-buffered saline (PBS) containing 2% FBS and then layered onto Lymphoprep (STEMCELL Technologies, 07851) in SepMate-50 isolation tubes (STEMCELL Technologies, 85480). The discontinuous gradient was centrifuged for 10 min at 1,200×g, and mononuclear cells were removed by pouring off. Mononuclear cells were then resuspended in PBS+2% FBS and centrifuged for 3 min at 200×g twice before further use. Washed mononuclear cells were then aliquoted at 5×10^5 cells per well of a 48-well plate with 300 μL RPMI containing 10% FBS (complete RPMI). Cells were then diluted with 100 μL complete RPMI containing 50 μM of the test compound (10 μM final concentration). Then, 100 μL complete RPMI (-LPS) or 100 μL complete RPMI containing […] LPS (+LPS, 10 ng mL^−1 final concentration) was added. Cells were incubated overnight at 37° C. in 5% CO2, and conditioned medium was harvested and centrifuged for 5 min at 500×g to remove residual cells. Samples were used directly for cytokine analysis with the LEGENDPlex Human Inflammatory Panel 1 (BioLegend, 740809) according to the manufacturer's protocol. For analysis, 25 μL of the conditioned medium was used for −LPS samples, and 12.5 μL was used for the +LPS samples. On-bead ELISA readouts were measured using the standard PE and APC detection filter parameters on a ZE5 flow cytometer (Bio-Rad; 405, 488, 561, and 640 lasers) in the Scripps Research Flow Cytometry Core Facility. Raw data files were then imported into the LEGENDPlex Cloud Data Analysis software suite (BioLegend) and analyzed using the manufacturer's pre-set parameters.

| SMILES | B16 tumor growth over time [1] | IFNγ levels ([2]; without or with LPS) | interleukin-1 beta (IL-1B) in the medium ([2]; without or with LPS) | tumor necrosis factor alpha (TNFα) in the medium ([2]; without or with LPS) | Anti-tumor activity in Nod2−/− mice ([1]; Nod2−/− vs. wild-type C57BL/6 mice, 100 μg α-PD-L1 and 100 μg TT030 every other day) | IL-12p70 secretion ([2]; with and without LPS) | IL-18 production ([2]; without or with LPS) | IL-23 production ([2]; without or with LPS) |
| --- | --- | --- | --- | --- | --- | --- | --- | --- |
| CC(=O)N[C@H]1C(O)O[C@H](CO)[C@@H](O)[C@@H]1O[C@H](C)C(=O)N[C@@H](C)C(=O)N[C@H](CCC(=O)O)C(N)=O (stereo partly drawn) [MDP, (4R)-4-((2S)-2-((2R)-2-(((3R,4R,5S,6R)-3-acetamido-2,5-dihydroxy-6-(hydroxymethyl)tetrahydro-2H-pyran-4-yl)oxy)propanamido)propanamido)-5-amino-5-oxopentanoic acid, reference compound] | significantly inhibited tumor growth | increased | significant increase | significant increase |  |  |  |  |
| CCOC(=O)CC[C@@H](NC(=O)[C@@H](NC(=O)c1c(C)nn(-c2cc[nH]c(=O)c2)c1C)C(C)C)C(=O)OCC [TT030, Diethyl (3,5-dimethyl-1-(2-oxo-1,2-dihydropyridin-4-yl)-1H-pyrazole-4-carbonyl)-L-valyl-D-glutamate] | anti-tumor activity was also observed; also recorded: equivalent anti-tumor activity as MDP | increased | equivalent concentrations | equivalent concentrations | loss in the anti-tumor activity | increase | production | production |
